Measurements taken from US20260109721A1, “IONIZABLE CATIONIC LIPIDS INCORPORATING SILICON: SYNTHESIS AND LNP FORMULATION” (priority 2023, published 2026).

system: HeLa cells; experiment: Cell viability assessment with resazurin assay (Method A); format: cell-based; conditions: human
Description: The synthesized lipids were tested in term of in vitro transfection efficacy and toxicity on HeLa cells. In order to perform the mentioned biological tests, appropriate LNPs had to be formulated from the synthesized lipids. The formulation technique was different in Method A and B. The particle size, polydispersity index (PDI) and zeta potential of resulting LNPs were determined by means of Dynamic Light Scattering technique (DLS). Prior to biological testing the encapsulation efficiency (EE) of the loaded LNPs was determined by using RiboGreen RNA assay. In case of Method A Luc mRNA while in case of Method B GFP mRNA was transfected into the cells. In parallel with the transfection experiments, toxicity of the investigated LNPs was determined, in case of Method A resazurin assay while in case of Method B MTT assay was used. Additionally, the toxicity of the lipids was investigated on HepG2 cells and IC50 values were determined.
This protocol is used to determine the metabolic activity of cells as a measure for cell viability after exposure to potentially toxic substances. Resazurin is converted in mitochondria by reduction to resorufin, which has a much higher fluorescence at ˜600 nm compared to unconverted resazurin. A lower amount/percentage of conversion is correlated with reduced cellular metabolism and indirectly to cellular death and toxicity. Care must be taken with interpretation of the read-out, as 50% reduction in resazurin conversion may mean 50% reduction of cellular metabolism of 100% alive cells, or 50% of cells dead, and any combination in between.
• 1. Prepare 0.25 mg/ml stock solution resazurin in fresh cell culture medium. Resazurin is auto-reducing over time in solution, especially in medium, and fresh stocks should be prepared every 2-3 days. Stocks should be stored at 4° C. and protected from light. For HeLa cells, DMEM/F12 with 10% FCS is used. • 2. Dilute stock solution 10× in fresh cell culture medium to 0.025 mg/ml->ready for application on cells. For HeLa cells, DMEM/F12 with 10% FCS is used. • 3. Collect 96-well plate and replace cell-culture spent medium with 100 μl per well resazurin solution. Add some resazurin solution for background measurement in wells not containing cells. • 4. Incubate for 50 minutes in incubator at 37° C., 5% CO2, 95% RH. • 5. Transfer resazurin solution to a fresh 96- or 384-well plate. • 6. Measure in plate reader using 540/25 nm (excitation) and 610/40 nm (emission) using standard settings (PTM low/OD-1.0). • 7. Subtract the average background measurement from all samples. Set the average of the negative controls (well receiving OptiMEM only during transfection) to 100% and express all values as percentage of the control activity. Typically, at lower levels of treatment, elevation of metabolic activity is shown, whereas for toxic substances, at toxic concentrations sigmoidal curves can be obtained, with lower activity indicating higher toxicity.

Structure (SMILES)	Cell Viability % (Average metabolic rate over all doses, Resazurin) [%]
CCCCC/C=C\C/C=C\CCCCCCCCOC(CC[C@@H](C)C1CCC2C3CCC4C[C@H](OC)CC[C@]4(C)C3CC[C@@]21C)O[Si](C)(C)OCCCCCCN(CCO)CCO (stereo partly drawn) [Example 52, (23Z,26Z)-3-(2-hydroxyethyl)-13-((3R)-3-((3R,10S,13R)-3-methoxy-10,13-dimethylhexadecahydro-1H-cyclopenta[a]phenanthren-17-yl)butyl)-11,11-dimethyl-10,12,14-trioxa-3-aza-11-siladotriaconta-23,26-dien-1-ol]	95
C#CCN(C)CCCCCCO[Si](C)(C)OC(CCCCCCC/C=C\C/C=C\CCCCC)OCCCCCCCC/C=C\C/C=C\CCCCC (centres unmarked) [Example 67, (20Z,23Z)-10-((8Z,11Z)-heptadeca-8,11-dien-1-yl)-N,8,8-trimethyl-N-(prop-2-yn-1-yl)-7,9,11-trioxa-8-silanonacosa-20,23-dien-1-amine]	94
CCCCCCCC/C=C\CCCCCCCCOC(CC[C@@H](C)C1CCC2C3CCC4C[C@H](OC)CC[C@]4(C)C3CC[C@@]21C)O[Si](C)(C)OCCCCCCN(CCO)CCO (stereo partly drawn) [Example 51, (Z)-3-(2-hydroxyethyl)-13-((3R)-3-((3R,10S,13R)-3-methoxy-10,13-dimethylhexadecahydro-1H-cyclopenta[a]phenanthren-17-yl)butyl)-11,11-dimethyl-10,12,14-trioxa-3-aza-11-siladotriacont-23-en-1-ol]	92
CCCCCCCC/C=C\CCCCCCCCOC(=O)C(C)(C)CC(OCCCCCCCC/C=C\CCCCCCCC)O[Si](C)(C)OCCCCCCN(CCO)CCN(CCO)CCCCCCO[Si](C)(C)OC(CC(C)(C)C(=O)OCCCCCCCC/C=C\CCCCCCCC)OCCCCCCCC/C=C\CCCCCCCC (centres unmarked) [Example 96, di((Z)-octadec-9-en-1-yl) 14,17-bis(2-hydroxyethyl)-2,2,6,6,25,25,29,29-octamethyl-4,27-bis(((Z)-octadec-9-en-1-yl)oxy)-5,7,24,26-tetraoxa-14,17-diaza-6,25-disilatriacontanedioate]	104
CCCCCCCC/C=C\CCCCCCCCOC(=O)C(C)(C)CC(OCCCCCCCC/C=C\CCCCCCCC)O[Si](C)(C)OCCCCCCN1CCCCC1 (centres unmarked) [Example 87, (Z)-octadec-9-en-1-yl 4-((dimethyl((6-(piperidin-1-yl)hexyl)oxy)silyl)oxy)-2,2-dimethyl-4-(((Z)-octadec-9-en-1-yl)oxy)butanoate]	84
CCCCCCCC/C=C\CCCCCCCCOC(=O)C(C)(C)CC(OCCCCCCCC/C=C\CCCCCCCC)O[Si](C)(C)OCCCCCCN(C)CC(O)CO (centres unmarked) [Example 92, (Z)-octadec-9-en-1-yl 1,2-dihydroxy-4,12,12,16,16-pentamethyl-14-(((Z)-octadec-9-en-1-yl)oxy)-11,13-dioxa-4-aza-12-silaheptadecan-17-oate]	111
C#CCN(C)CCCCCCO[Si](C)(C)OC(CC(C)(C)C(=O)OCCCCCCCC/C=C\CCCCCCCC)OCCCCCCCC/C=C\CCCCCCCC (centres unmarked) [Example 97, (Z)-octadec-9-en-1-yl 4,12,12,16,16-pentamethyl-14-(((Z)-octadec-9-en-1-yl)oxy)-11,13-dioxa-4-aza-12-silaheptadec-1-yn-17-oate]	109
CCCCCCCC/C=C\CCCCCCCC(OCCCCCCCCCCCC1CCCCC1)O[Si](C)(C)OCCCCCCN(CCO)CCO (centres unmarked) [Example 74, (Z)-25-cyclohexyl-13-(heptadec-8-en-1-yl)-3-(2-hydroxyethyl)-11,11-dimethyl-10,12,14-trioxa-3-aza-11-silapentacosan-1-ol]	107
CCCCC/C=C\C/C=C\CCCCCCCCOC(CCCCCCC/C=C\C/C=C\CCCCC)O[Si](C)(C)OCCCCCCN(C)C (centres unmarked) [Example 79, (20Z,23Z)-10-((8Z,11Z)-heptadeca-8,11-dien-1-yl)-N,N,8,8-tetramethyl-7,9,11-trioxa-8-silanonacosa-20,23-dien-1-amine]	91
CCCCC/C=C\C/C=C\CCCCCCCCOC(CCCCCCC/C=C\C/C=C\CCCCC)O[Si](C)(C)O[Si](C)(C)CCCCCCN(CCO)CCO (centres unmarked) [Example 82, (24Z,27Z)-14-((8Z,11Z)-heptadeca-8,11-dien-1-yl)-3-(2-hydroxyethyl)-10,10,12,12-tetramethyl-11,13,15-trioxa-3-aza-10,12-disilatritriaconta-24,27-dien-1-ol]	97
CCCCCCCC/C=C\CCCCCCCC(OCCC(C)CCCC(C)CCCC(C)CCCC(C)C)O[Si](C)(C)OCCCCCCN(CCO)CCO (centres unmarked) [Example 75, (Z)-13-(heptadec-8-en-1-yl)-3-(2-hydroxyethyl)-11,11,17,21,25,29-hexamethyl-10,12,14-trioxa-3-aza-11-silatriacontan-1-ol]	120
CCCCC/C=C\C/C=C\CCCCCCCCO[Si](C)(C)OC(CCCCCCC/C=C\C/C=C\CCCCC)OCCCN(C)C (centres unmarked) [Example 80, (17Z,20Z)-5-((8Z,11Z)-heptadeca-8,11-dien-1-yl)-N,N,7,7-tetramethyl-4,6,8-trioxa-7-silahexacosa-17,20-dien-1-amine]	99
CCCCCCCC/C=C\CCCCCCCC(OCCCCCCCCCCCCCCCC)O[Si](C)(C)OCCCCCCN(CCO)CCO (centres unmarked) [Example 42, (Z)-13-(heptadec-8-en-1-yl)-3-(2-hydroxyethyl)-11,11-dimethyl-10,12,14-trioxa-3-aza-11-silatriacontan-1-ol]	98
CCCCCCCCCCCCCCCCOC(CCCCCCCCCCCCCCC)O[Si](C)(C)OCCCCCCN(CCO)CCO (centres unmarked) [Example 49, 3-(2-hydroxyethyl)-11,11-dimethyl-13-pentadecyl-10,12,14-trioxa-3-aza-11-silatriacontan-1-ol]	93
CCCCCCCC/C=C\CCCCCCCCOC(=O)C(C)(C)CC(OCCCCCCCC/C=C\CCCCCCCC)O[Si](C)(C)OCCCCCCN1CCCCC1CO (centres unmarked) [Example 89, (Z)-octadec-9-en-1-yl 4-((((6-(2-(hydroxymethyl)piperidin-1-yl)hexyl)oxy)dimethylsilyl)oxy)-2,2-dimethyl-4-(((Z)-octadec-9-en-1-yl)oxy)butanoate]	96
CCCCC/C=C\C/C=C\CCCCCCCC(OCCCCCCCCCCCCCCCC)O[Si](C)(C)OCCCCCCN(CCO)CCO (centres unmarked) [Example 44, 13-((8Z,11Z)-heptadeca-8,11-dien-1-yl)-3-(2-hydroxyethyl)-11,11-dimethyl-10,12,14-trioxa-3-aza-11-silatriacontan-1-ol]	94
CCCCC/C=C\C/C=C\CCCCCCCCOC(CCCCCCC/C=C\CCCCCCCC)O[Si](C)(C)OCCCCCCN(CCO)CCO (centres unmarked) [Example 46, (23Z,26Z)-13-((Z)-heptadec-8-en-1-yl)-3-(2-hydroxyethyl)-11,11-dimethyl-10,12,14-trioxa-3-aza-11-siladotriaconta-23,26-dien-1-ol]	95
CCCCC/C=C\C/C=C\CCCCCCCCOC(CCCCCCC/C=C\C/C=C\CCCCC)O[Si](C)(C)OCCCCCCN1CCOCC1 (centres unmarked) [Example 55, 4-((20Z,23Z)-10-((8Z,11Z)-heptadeca-8,11-dien-1-yl)-8,8-dimethyl-7,9,11-trioxa-8-silanonacosa-20,23-dien-1-yl)morpholine]	91
CCCCCCCC/C=C\CCCCCCCCOC(=O)C(C)(C)CC(OCCCCCCCC/C=C\CCCCCCCC)O[Si](C)(C)OCCCCCCN(C)CCCCO (centres unmarked) [Example 91, (Z)-octadec-9-en-1-yl 18-hydroxy-2,2,6,6,14-pentamethyl-4-(((Z)-octadec-9-en-1-yl)oxy)-5,7-dioxa-14-aza-6-silaoctadecanoate]	105
CCCCC/C=C\C/C=C\CCCCCCCCOC(CCCCCN(C)CC(O)CO)O[Si](C)(C)OCCCCCCCC/C=C\C/C=C\CCCCC (centres unmarked) [Example 66, (22Z,25Z)-4,12,12-trimethyl-10-(((9Z,12Z)-octadeca-9,12-dien-1-yl)oxy)-11,13-dioxa-4-aza-12-silahentriaconta-22,25-diene-1,2-diol]	91
